Patent US11267786B2, “[3.3.1] bicyclo compounds as indoleamine 2,3-dioxygenase inhibitors” (Merck Sharp & Dohme Corp., priority 2018, dated 2022)

How the values were obtained:
IDO1 [1] = biological target: T1, IDO1 (Homo sapiens, UniProt P14902); assay: IDO1 Cellular Assay in Hela Cells Stimulated with IFNγ; type: cell-based; details: 100 ng/mL IFNγ, 300 uM L-tryptophan, about 48 hours, fluorescence readout
Protocol: IDO1 Cellular Assay in Hela Cells Stimulated with IFNγ
Hela cells were cultured in complete Hela culture medium (90% EMEM, 10% heat-inactivated fetal bovine serum) and expanded to about 1×10^9 cells. The cells were then collected and frozen down at 1×10^7 cells/vial in 1 mL frozen medium (90% complete Hela culture medium, 10% DMSO)
Compounds to be tested were serially diluted in ten 3-fold steps in DMSO starting from 10 mM DMSO stocks in Echo low volume plate(s). Compound dilutions or DMSO alone were then dispensed from the dilution plate(s) into Greiner black 384-well assay plate(s) (catalog #781086, 50 nL/well) using an Echo 550 acoustic liquid handler (Labcyte).
Frozen Hela cells were thawed and transferred into Hela assay medium (99% complete Hela culture medium, 1% Pen/Strep) with 20 mL medium/vial of cells. The cells were spun down at 250 g in a table top centrifuge for 5 min and suspended in same volume of Hela assay medium. The cells were then counted and adjusted to a density of 2×10^5 cells/ml in Hela assay medium. Sterile L-tryptophan were added to the cells with final concentration of 300 uM L-tryptophan. A small aliquot (2 mL/plate) of Hela cells were set aside and were not treated with IFNγ, to serve as the Max-E control.
Hela cells with and without IFNγ were dispensed to the respective wells of 384-well assay plates containing the compounds. The plates were incubated for about 48 hours at a 37° C., 5% CO2 incubator. Afterwards, 12 μL of 0.5 M methyl isonipecotate in dimethyl sulfoxide were added into each well and the plates were sealed and incubated at 37° C. without CO2 overnight. The plates were centrifuged for 1 min at 200×g. The resulting fluorescence was measured in a Spectramax plate reader (Molecular Devices) with a 400 nm excitation filter and a 510 nm emission filter.
The fluorescence intensity of each well was corrected for the background observed in wells with non-IFNγ-treated cells and was expressed as a fraction of the intensity observed in wells of IFNγ-treated cells and DMSO only. Potencies were calculated by linear least squares fit to the four parameter logistic IC50 equation.

IDO1 [2] = biological target: T1, IDO1; assay: IDO1 Human Whole Blood Assay; type: cell-based; design: Human whole blood was drawn in sodium heparin coated tubes from healthy internal donors; from tissue; host or cells: human whole blood from healthy donors, stimulated with LPS and IFNγ; details: human whole blood stimulated with LPS and IFNγ 100 ng/mL, 18 h, kynurenine by LC/MS/MS
Protocol: IDO1 Human Whole Blood Assay
Compounds to be tested were serially diluted in ten 3-fold steps in DMSO starting from 10 mM. 3 μL of compound dilutions or DMSO alone were then dispensed from the dilution plate into a polypropylene 96-well assay plate containing 97 μL of RPMI medium using an Echo 555 acoustic liquid handler (Labcyte). LPS and IFNγ were prepared in RPMI medium to a 10× of final conc. (1000 ng/mL), final concentration is 100 ng/mL.
Human whole blood was drawn in sodium heparin coated tubes from healthy internal donors. Two hundred forty μL of blood was transferred to each of the wells of a v-bottom 96 well plate. Thirty μL of compound was transferred from intermediate dilution plate, and incubated for 15 min. Thirty μL from stimulants was then transferred to blood and mixed thoroughly. Plate was covered with breathable membrane and incubated at 37° C. for overnight (18 h).
On day 2 isotope labeled standard of kynurenine and tryptophan was made in water at 10× concentration and 30 μL was added to the blood at 3 μM final concentration. […] Twenty μL of supernatant was carefully transferred to a 384 well plate containing 40 μL of 0.1% formic acid in water and analyzed by LC/MS/MS.
LC/MS/MS analyses were performed using Thermo Fisher's LX4-TSQ Quantum Ultra system. […] Compounds were titrated and IC50's were calculated by 4 parameter sigmoidal curve fitting formula.

T1 sequence (P14902 whole entry): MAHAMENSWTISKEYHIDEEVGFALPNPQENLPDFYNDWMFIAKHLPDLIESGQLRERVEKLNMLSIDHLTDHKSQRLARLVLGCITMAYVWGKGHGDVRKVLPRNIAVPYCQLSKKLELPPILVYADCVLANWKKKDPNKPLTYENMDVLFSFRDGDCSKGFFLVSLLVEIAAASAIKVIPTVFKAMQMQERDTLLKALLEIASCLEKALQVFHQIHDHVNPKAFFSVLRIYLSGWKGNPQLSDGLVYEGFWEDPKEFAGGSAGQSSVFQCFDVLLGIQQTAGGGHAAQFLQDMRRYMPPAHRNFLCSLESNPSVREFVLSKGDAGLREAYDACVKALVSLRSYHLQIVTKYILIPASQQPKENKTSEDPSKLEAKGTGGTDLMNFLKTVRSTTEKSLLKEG

Compound | IC50 (IDO1 [1]) | IC50 (IDO1 [2])
O=C(Nc1ccc(Cl)cc1)C1CCC2CC1CCC2c1ccnc2ccc(F)cc12 (single isomer, unassigned) [Example 2, N-(4-chlorophenyl)-6-(6-fluoroquinolin-4-yl)bicyclo[3.3.1]nonane-2-carboxamide] | 260 nM | 
O=C(NC1CCC2CC1CCC2c1ccnc2ccc(F)cc12)c1ccc(Cl)cc1 (single isomer, unassigned) [Example 8, 4-Chloro-N-(6-(6-fluoroquinolin-4-yl)bicyclo[3.3.1]nonan-2-yl)benzamide] | 2500 nM | 
O=C(NC1CCC2CC1CCC2c1ccnc2ccc(F)cc12)c1ccc(Cl)cc1 (single isomer, unassigned) [Example 5, 4-Chloro-N-(6-(6-fluoroquinolin-4-yl)bicyclo[3.3.1]nonan-2-yl)benzamide] | 770 nM | 
O=C(Nc1ccc(Cl)cc1)C1CCC2CC1CCC2c1ccnc2ccc(F)cc12 (single isomer, unassigned) [Example 4, N-(4-chlorophenyl)-6-(6-fluoroquinolin-4-yl)bicyclo[3.3.1]nonane-2-carboxamide] | 2510 nM | 
O=C(NC1CCC2CC1CCC2c1ccnc2ccc(F)cc12)c1ccc(Cl)cc1 (single isomer, unassigned) [Example 6, 4-Chloro-N-(6-(6-fluoroquinolin-4-yl)bicyclo[3.3.1]nonan-2-yl)benzamide] | 1640 nM | 

These reach a lower IC50 (IDO1 [1]). Values come first.

IC50 (IDO1 [1]) | IC50 (IDO1 [2]) | Compound
25 nM |  | O=C(NC1CCC2CC1CCC2c1ccnc2ccc(F)cc12)c1ccc(Cl)cc1 (single isomer, unassigned) [Example 7, 4-Chloro-N-(6-(6-fluoroquinolin-4-yl)bicyclo[3.3.1]nonan-2-yl)benzamide]
127 nM |  | O=C(Nc1ccc(Cl)cc1)C1CCC2CC1CCC2c1ccnc2ccc(F)cc12 (single isomer, unassigned) [Example 3, N-(4-chlorophenyl)-6-(6-fluoroquinolin-4-yl)bicyclo[3.3.1]nonane-2-carboxamide]
2 nM | 306 nM | O=C(Nc1ccc(Cl)cc1)C1CCC2CC1CCC2c1ccnc2ccc(F)cc12 (single isomer, unassigned) [Example 1, N-(4-chlorophenyl)-6-(6-fluoroquinolin-4-yl)bicyclo[3.3.1]nonane-2-carboxamide]
